Data: patent publication US11260011B2, “Use of neohesperidin” (NATURAL MEDICINE INSTITUTE OF ZHEJIANG YANGSHENGTANG CO., …, priority 2011, dated 2022)
Where “and” joins values, the source holds several entries; their conditions need not be identical. Equal values may be shown once.

What was measured:
[1] = Effect of topical application of neohesperidin on skin microcirculation by Laser Doppler Flowmetery; assay type: in vivo, Oryctolagus cuniculus; parameters: key to Working time point: —: represents the time point at which P < 0.1 did not appear during the 24 h test when 2% solution was administered orally
Description: The experimental method for promoting microcirculation: Male Oryctolagus cuniculus weighted 3.0-3.5 kg were used. After shaving the hair on the back of the Oryctolagus cuniculus, 10 points for testing blood flow were marked with a marker pen on the hairless skin of the rabbit, i.e. 5 points for each of the right side and the left side, and aorta was avoided when drawing the points. Before smearing the sample, the basic values of blood flow at the 10 points of rabbits of each experimental group were determined by Laser Doppler Flowmetery. […] 2% (w/v) solution was orally administrated by a similar method in a volume 100 times compared to the volume used in the group wherein the 2% (w/v) solution was administered by smearing. After administration, the blood flow value was determined every hour at the same point by Laser Doppler Flowmetery for 24 h, and the variation index of blood flow was calculated to evaluate the effect of neohesperidin on the back blood of rabbits, wherein a higher variation index of blood flow indicated a better effect of promoting microcirculation. The experimental results were statistically analyzed by SPSS11.5 software, and t-test was applied to the measured data to evaluate the experimental results. When P<0.1, the data may be regarded as statistically significant. In the results of Table 1, all the time points with P<0.1 in the 24-h test were listed.

[2] = topical application to human skin; cited from earlier work

Compound | improvement of skin microcirculation after topical administration to skin surface [2] | other results
COc1ccc([C@@H]2CC(=O)c3c(O)cc(O[C@@H]4O[C@H](CO)[C@@H](O)[C@H](O)[C@H]4O[C@@H]4O[C@@H](C)[C@H](O)[C@@H](O)[C@H]4O)cc3O2)cc1O [neohesperidin] |  | Working time point ([1]; 0.5% (w/v) solution, smearing on back skin, time points with P<0.1 in 24-h test): 6 h; Working time point ([1]; 1% (w/v) solution, smearing on back skin, time points with P<0.1 in 24-h test): 2 h and 3 h; Working time point ([1]; 2% (w/v) solution, orally, 24-h test): —; blood flow in skin microvessels as compared to the blank side ([1]; smearing backs of rabbits with different concentrations): significantly enhanced
C[C@@H]1CC[C@@]2(OC1)O[C@H]1C[C@H]3[C@@H]4CC=C5C[C@@H](O)C[C@@H](O)[C@]5(C)[C@H]4CC[C@]3(C)[C@H]1[C@@H]2C [ruscogenin] | cannot significantly improve skin microcirculation | 
ginkgo flavone | cannot significantly improve skin microcirculation | 
ginsenoside | cannot significantly improve skin microcirculation | 
tanshinone | cannot significantly improve skin microcirculation | 
β-aescin | cannot significantly improve skin microcirculation | 
